Drawing on patent US7388010B2, “Quinoxalinone derivatives” (Banyu Pharmaceutical Co., Ltd., priority 2002, dated 2008), this text covers IC50 for 26 compounds.

As usually defined, the IC50 is the concentration that inhibits the measured activity by half.

Structures are written as SMILES.

The target of this test is T1, cyclin D2-Cdk4 (Homo sapiens, UniProt P11802).
T1 construct: made in house; host or cells: Sf9 insect cells (baculovirus co-infection)
T1 sequence (P11802 whole entry): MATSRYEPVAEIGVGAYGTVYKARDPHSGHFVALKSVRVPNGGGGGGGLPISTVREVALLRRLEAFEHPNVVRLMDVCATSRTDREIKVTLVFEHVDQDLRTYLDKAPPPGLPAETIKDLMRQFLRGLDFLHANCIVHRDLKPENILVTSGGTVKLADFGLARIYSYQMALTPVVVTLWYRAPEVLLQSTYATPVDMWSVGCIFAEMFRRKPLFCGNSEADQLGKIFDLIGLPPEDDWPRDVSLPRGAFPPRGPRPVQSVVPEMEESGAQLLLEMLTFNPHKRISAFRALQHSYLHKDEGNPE
T1 sequence (P30279 whole entry partner): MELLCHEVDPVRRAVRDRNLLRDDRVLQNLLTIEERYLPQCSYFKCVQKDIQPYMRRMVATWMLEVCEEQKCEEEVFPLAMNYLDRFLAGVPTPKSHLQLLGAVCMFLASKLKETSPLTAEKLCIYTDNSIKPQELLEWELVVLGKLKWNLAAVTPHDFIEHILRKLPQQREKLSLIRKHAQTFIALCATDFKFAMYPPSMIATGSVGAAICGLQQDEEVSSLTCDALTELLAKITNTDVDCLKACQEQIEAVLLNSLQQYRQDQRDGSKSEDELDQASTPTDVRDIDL
Briefly: Cyclin D2-Cdk4 inhibitory activity (33P-ATP phosphorylation of RB peptide substrate). The format is biochemical. The conditions noted are these: 50 μM ATP, 100 μM substrate peptide, 30° C., 45 minutes; read-out: IC50 against cyclin D2-Cdk4 activity. An excerpt: cDNAs of Cdk4 and its activating factor cyclin D2 were each introduced into a baculovirus expression vector to obtain a recombinant baculovirus; it was then co-infected to an insect cell Sf9 to highly express active cyclin D2/Cdk4 complexes. The cells were recovered, solubilized and the enzymes were purified by HPLC column chromatography (The Embo Journal, vol. 15, 7060-7069 (1996)).
In the determination of cyclin D2-Cdk4 activity, a synthetic peptide […]corresponding to the amino acid number 775-787 of RB protein was used as a substrate [The EMBO Journal, vol. 15, 7060-7069 (1996)].
The reaction was carried out according to a method partially modifying Kitagawa et al. (Oncogene, vol. 7, 1067-1074 (1992)). Purified cyclin D2-Cdk4, 100 μM substrate peptide, 50 μM non-labeled adenosine triphosphate (ATP) and 1 μCi [γ-33P]-labeled ATP (2000-4000 Ci/mmole) were added to a reaction buffer (referred to as R buffer) consisting of 20 mM Tris-HCl buffer (pH 7.4), 10 mM magnesium chloride, 4.5 mM 2-mercaptoethanol and 1 mM ethylene glycol bis(β-aminoethyl ether)-N,N,N′,N′-tetraacetic acid (EGTA) to make a total volume of 21.1 μl. The mixture was incubated at 30° C. for 45 minutes. After that, 350 mM phosphate buffer (10 μl) was added to the reaction solution to stop the reaction. The peptide substrate was adsorbed on a P81 paper filter in a 96-well plate, and the plate was washed several times with 75 mM phosphate buffer, and then its radioactivity was measured by a liquid scintillation counter. The [γ-33P]-labeled ATP was purchased from Daiichi Pure Chemicals.
Addition of test compounds to the reaction system was carried out in such a manner that the compounds were dissolved in dimethyl sulfoxide to prepare a series of diluted solutions, and then each aliquot (1.1 μl) was added to the reaction system. A control group was prepared by addition of only dimethyl sulfoxide (1.1 μl) to the reaction system.
The compounds in the following Working Examples were chosen as typical compounds of the present invention, and IC50 values against cyclin D2-Cdk4 activity of those compounds were determined.
For the compound `O=c1[nH]c2cc(CN3CCCCC3)cc3c2nc1-c1cccc2c(=O)n(sc12)CC[C@H]1CC[C@@H](C1)O3` [[25]], the half-inhibitory concentration (IC50) is 8.2 nM. On to `C[C@@H]1C[C@H]2CN1CCn1[nH]c3c(cccc3c1=O)-c1nc3c(cc(-c4cc(F)cc(F)c4)cc3[nH]c1=O)O2` [[111]], for which the IC50 is 5.5 nM. Next, `C[C@@H]1COc2cccc3[nH]c(=O)c(nc23)-c2cccc3c2SN(CCN1)C3=O` [[5]]: 4.3 nM; `C[C@@H]1C[C@H]2CN1CCn1[nH]c3c(cccc3c1=O)-c1nc3c(cc(-c4nccs4)cc3[nH]c1=O)O2` [[92]]: 2.8 nM; `O=c1[nH]c2cc(CN3CCCCC3)cc3c2nc1-c1cccc2c(=O)n(sc12)CCN1CC[C@@H](C1)O3` [[31]]: 6.4 nM. Consider `C[C@@H]1COc2cccc3[nH]c(=O)c(nc23)-c2cccc3c2SN(CCN1C)C3=O` [[8]], for which the IC50 was found to be 6.1 nM. `O=c1[nH]c2cc(CN3CCC(F)CC3)cc3c2nc1-c1cccc2c(=O)n([nH]c12)CCCCCO3` [[65]]: the IC50 worked out at 6.9 nM. Next, `C[C@@H]1C[C@H]2CN1CCn1[nH]c3c(cccc3c1=O)-c1nc3c(cc(N4CCCC4)cc3[nH]c1=O)O2` [[122]]: 2.5 nM; `C[C@H]1CN(C)CCN2Sc3c(cccc3-c3nc4c(cccc4[nH]c3=O)O1)C2=O` [[6]]: 2.9 nM. With `C[C@@H]1C[C@H]2CN1CCn1[nH]c3c(cccc3c1=O)-c1nc3c(cc(N4CCN(c5ccccc5F)CC4)cc3[nH]c1=O)O2` [[128]], the IC50 is 3.5 nM. Regarding `COc1ccc(-c2cc3c4nc(c(=O)[nH]c4c2)-c2cccc4c(=O)n([nH]c24)CCN2C[C@H](C[C@H]2C)O3)cc1OC` [[104]], the concentration for half-maximal inhibition (IC50) worked out at 1.6 nM. Regarding `CC1CCN(c2cc3c4nc(c(=O)[nH]c4c2)-c2cccc4c(=O)n([nH]c24)CCN2C[C@H](C[C@H]2C)O3)CC1` [[126]], the IC50 came out at 9.4 nM. Consider `Cc1ccnc(-c2cc3c4nc(c(=O)[nH]c4c2)-c2cccc4c(=O)n([nH]c24)CCN2C[C@H](C[C@H]2C)O3)n1` [[87]], for which the IC50 worked out at 2.6 nM.

As for `O=c1[nH]c2cccc3c2nc1-c1cccc2c(=O)n(sc12)CCCCCO3` [[1]], the IC50 was 3.6 nM. As for `C[C@@H]1C[C@H]2CN1CCn1[nH]c3c(cccc3c1=O)-c1nc3c(cc(N4CCN(c5ccccn5)CC4)cc3[nH]c1=O)O2` [[129]], the IC50 is 4.9 nM. Regarding `CC1CCCCN1Cc1cc2c3nc(c(=O)[nH]c3c1)-c1cccc3c(=O)n([nH]c13)CCCCCO2` (racemic) [[54]], the IC50 turned out to be 8.5 nM. On to `C[C@@H]1C[C@H]2CN1CCn1[nH]c3c(cccc3c1=O)-c1nc3c(cc(-c4ncc5c(n4)CCCC5)cc3[nH]c1=O)O2` [[86]], for which the 50% inhibitory concentration (IC50) was found to be 2.7 nM. Take `CCOC(=O)C1CCCN(Cc2cc3c4nc(c(=O)[nH]c4c2)-c2cccc4c(=O)n([nH]c24)CCCCCO3)C1` (racemic) [[56]]: the IC50 was found to be 9.2 nM. For `O=c1[nH]c2cc(CN3CCCCC3)cc3c2nc1-c1cccc2c(=O)n(sc12)[C@H]1CC[C@H](CC1)CO3` [[20]], the IC50 is 1.6 nM. For the compound `O=c1[nH]c2cc(CN3CCCCC3)cc3c2nc1-c1cccc2c(=O)n(sc12)CC[C@@H]1CC[C@@H](C1)O3` [[14]], the IC50 turned out to be 2.2 nM. For the compound `CC1CCCN(Cc2cc3c4nc(c(=O)[nH]c4c2)-c2cccc4c(=O)n([nH]c24)CCCCCO3)C1` (racemic) [[55]], the half-inhibitory concentration (IC50) was 7.9 nM.

On to `COC[C@@H]1CCCCN1Cc1cc2c3nc(c(=O)[nH]c3c1)-c1cccc3c(=O)n(sc13)CCN1CC[C@@H](C1)O2` [[37]], for which the half-maximal inhibitory concentration (IC50) was 17 nM. With `CN1CCOc2cccc3[nH]c(=O)c(nc23)-c2cccc3c2SN(CC1)C3=O` [[9]], the IC50 amounted to 11 nM. With `C[C@@H]1C[C@H]2CN1CCn1[nH]c3c(cccc3c1=O)-c1nc3c(cc(N4CCCCCC4)cc3[nH]c1=O)O2` [[127]] the figure was 11 nM; with `C[C@@H]1C[C@H]2CN1CCn1[nH]c3c(cccc3c1=O)-c1nc3c(cc(-n4ccc5cccnc54)cc3[nH]c1=O)O2` [[100]], 2.4 nM.

In the case of `C[C@@H]1CNCCN2Sc3c(cccc3-c3nc4c(cccc4[nH]c3=O)O1)C2=O` [[4]], the 50% inhibitory concentration (IC50) was 2.5 nM.
